Assay results: patent publication US20260232767A1, “INTERLEUKIN-23 RECEPTOR ANTAGONIST PEPTIDES FOR USE IN THE TREATMENT OF PSORIASIS” (Janssen Pharmaceutica NV, priority 2023, published 2026)

System: subjects with moderate-to-severe plaque psoriasis
Experiment: Safety, adverse events, Example 2 through Week 56
Format: in vivo, human
Text: The LTE safety analysis was based on randomized participants in Example who entered the present long-term extension study and received at least one dose of study intervention (including a partial dose) during the study period.

[1] = Combined, Week 16 through Week 56

In the case of `CC(=O)NCCCC[C@@H]1NC(=O)[C@H](Cc2c[nH]c3c(C)cccc23)NC(=O)[C@H]([C@@H](C)O)NC(=O)[C@H](CC(N)=O)NC(=O)[C@@H](NC(C)=O)C(C)(C)SSC(C)(C)[C@@H](C(=O)N[C@@H](Cc2ccc(OCCN)cc2)C(=O)N[C@@H](Cc2ccc3ccccc3c2)C(=O)NC2(C(=O)N[C@@H](CCC(=O)O)C(=O)N[C@@H](CC(N)=O)C(=O)N[C@@H](Cc3cccnc3)C(=O)N(C)CC(N)=O)CCOCC2)NC1=O` [IL-23 receptor antagonist peptide, Ac-[Pen]*-N-T-[W(7-Me)]-[Lys(Ac)]-[Pen]*-Phe[4-(2-aminoethoxy)]-[2-Nal]-[THP]-E-N-[3-Pal]-Sarc-NH2 (*[Pen]-[Pen]* formdisulfidebond)], the “Respiratory, thoracic and mediastinal disorders: number of subjects” value (100 mg QD, through Week 56) is reported as 4, the “Retinal vein occlusion: number of subjects” value (100 mg QD, through Week 56) is reported as 0 and the “Rhinorrhoea: number of subjects” value (100 mg QD, through Week 56) is reported as 0. The “Seasonal allergy: number of subjects” value (100 mg QD, through Week 56) was 0, the “Skin and subcutaneous tissue disorders: % of subjects” value (100 mg QD, through Week 56) was “(4.7%)” and the “Skin and subcutaneous tissue disorders: number of subjects” value (100 mg QD, through Week 56) was 2. The “Skin laceration: % of subjects” value (100 mg QD, through Week 56) was “(2.3%)”, the “Skin laceration: number of subjects” value (100 mg QD, through Week 56) was 1 and the “Skin papilloma: number of subjects” value (100 mg QD, through Week 56) was 0. The “Social circumstances: number of subjects” value (100 mg QD, through Week 56) was 0, the “Steatohepatitis: number of subjects” value (100 mg QD, through Week 56) was 0 and the “Subjects with AE leading to discontinuation: Abdominal discomfort” value (100 mg QD, through Week 56) was 0. For the same compound, the “Subjects with AE leading to discontinuation: Abdominal pain” value (100 mg QD, through Week 56) was 0, the “Subjects with AE leading to discontinuation: Alanine aminotransferase increased” value (100 mg QD, through Week 56) was 0 and the “Subjects with AE leading to discontinuation: Aspartate aminotransferase increased” value (100 mg QD, through Week 56) was 0. For the same compound, the “Subjects with AE leading to discontinuation: Asthenia” value (100 mg QD, through Week 56) was 0, the “Subjects with AE leading to discontinuation: Gamma-glutamyltransferase increased” value (100 mg QD, through Week 56) was 0 and the “Subjects with AE leading to discontinuation: Insomnia” value (100 mg QD, through Week 56) was 0. For the same compound, the “Subjects with AE leading to discontinuation: Investigations” value (100 mg QD, through Week 56) was 0, the “Subjects with AE leading to discontinuation: Nausea” value (100 mg QD, through Week 56) was 0 and the “Subjects with AE leading to discontinuation: Proctalgia” value (100 mg QD, through Week 56) was 0. For the same compound, the “Subjects with AE leading to discontinuation: Psoriasis” value (100 mg QD, through Week 56) was 0, the “Subjects with AE leading to discontinuation: Skin and subcutaneous tissue disorders” value (100 mg QD, through Week 56) was 0 and the “Subjects with AE leading to discontinuation: Transaminases increased” value (100 mg QD, through Week 56) was 0. The “Subjects with AE leading to discontinuation: Weight increased” value (100 mg QD, through Week 56) was 0, the “Subjects with COVID-19 associated AE: SARS-CoV-2 test positive” value (100 mg QD, through Week 56) was 0 and the “Subjects with treatment-emergent AE: Alanine aminotransferase increased” value (100 mg QD, through Week 56) was 0. The “Subjects with treatment-emergent AE: Aspartate aminotransferase increased” value (100 mg QD, through Week 56) was 0, the “Subjects with treatment-emergent AE: Bronchitis” value (100 mg QD, through Week 56) was 0 and the “Subjects with treatment-emergent AE: Headache” value (100 mg QD, through Week 56) was 5. For the same compound, the “Subjects with treatment-emergent AE: Urinary tract infection” value (100 mg QD, through Week 56) was 0, the “Subjects with treatment-emergent serious AE: Cardiac disorders” value (100 mg QD, through Week 56) was 0 and the “Subjects with treatment-emergent serious AE: Cerebrovascular accident” value (100 mg QD, through Week 56) was 0. The “Subjects with treatment-emergent serious AE: Coronary artery disease” value (100 mg QD, through Week 56) was 0, the “Subjects with treatment-emergent serious AE: Foot deformity” value (100 mg QD, through Week 56) was 0 and the “Subjects with treatment-emergent serious AE: General disorders and administration site conditions” value (100 mg QD, through Week 56) was 0. For the same compound, the “Subjects with treatment-emergent serious AE: Infected cyst” value (100 mg QD, through Week 56) was 0, the “Subjects with treatment-emergent serious AE: Injury, poisoning and procedural complications” value (100 mg QD, through Week 56) was 0 and the “Subjects with treatment-emergent serious AE: Ligament injury” value (100 mg QD, through Week 56) was 0. For the same compound, the “Subjects with treatment-emergent serious AE: Neoplasms benign, malignant and unspecified (incl cysts and polyps)” value (100 mg QD, through Week 56) was 0, the “Subjects with treatment-emergent serious AE: Nervous system disorders” value (100 mg QD, through Week 56) was 0 and the “Subjects with treatment-emergent serious AE: Non-cardiac chest pain” value (100 mg QD, through Week 56) was 0. For the same compound, the “Subjects with treatment-emergent serious AE: Respiratory, thoracic and mediastinal disorders” value (100 mg QD, through Week 56) was 0, the “Subjects with treatment-emergent serious AE: Tonsillar hypertrophy” value (100 mg QD, through Week 56) was 0 and the “Subjects with treatment-emergent serious AE: Uterine leiomyoma” value (100 mg QD, through Week 56) was 0. For the same compound, the “Subjects with treatment-emergent serious AE: Ventricular dysfunction” value (100 mg QD, through Week 56) was 0, the “Suicide attempt: % of subjects” value (100 mg QD, through Week 56) was “(2.3%)” and the “Suicide attempt: number of subjects” value (100 mg QD, through Week 56) was 1. For the same compound, the “Sunburn: number of subjects” value (100 mg QD, through Week 56) was 0, the “Thrombocytopenia: number of subjects” value (100 mg QD, through Week 56) was 0 and the “Thrombocytosis: number of subjects” value (100 mg QD, through Week 56) was 0. The “Tonsillar hypertrophy: number of subjects” value (100 mg QD, through Week 56) was 0, the “Tooth fracture: number of subjects” value (100 mg QD, through Week 56) was 0 and the “Type 2 diabetes mellitus: number of subjects” value (100 mg QD, through Week 56) was 0. For the same compound, the “Urinary tract disorder: number of subjects” value (100 mg QD, through Week 56) was 0, the “Uterine leiomyoma: number of subjects” value (100 mg QD, through Week 56) was 0 and the “Vascular disorders: % of subjects” value (100 mg QD, through Week 56) was “(2.3%)”. For the same compound, the “Vascular disorders: number of subjects” value (100 mg QD, through Week 56) was 1, the “Ventricular dysfunction: number of subjects” value (100 mg QD, through Week 56) was 0 and the “Vertigo: % of subjects” value (100 mg QD, through Week 56) was “(2.3%)”. For the same compound, the “Vertigo: number of subjects” value (100 mg QD, through Week 56) was 1, the “Vitamin D deficiency: number of subjects” value (100 mg QD, through Week 56) was 0 and the “Number of subjects with treatment-emergent AE: Cholelithiasis” value [1] was 1. The “Number of subjects with treatment-emergent AE: Ear and labyrinth disorders” value [1] was 2, the “Number of subjects with treatment-emergent AE: Endocrine disorders” value [1] was 1 and the “Number of subjects with treatment-emergent AE: Eye disorders” value [1] was 3. The “Number of subjects with treatment-emergent AE: Eyelid skin dryness” value [1] was 1, the “Number of subjects with treatment-emergent AE: Goiter” value [1] was 1 and the “Number of subjects with treatment-emergent AE: Hepatobiliary disorders” value [1] was 2. The “Number of subjects with treatment-emergent AE: Hypertransaminasemia” value [1] was 1, the “Number of subjects with treatment-emergent AE: Immune system disorders” value [1] was 2 and the “Number of subjects with treatment-emergent AE: Insomnia” value [1] was 1. For the same compound, the “Number of subjects with treatment-emergent AE: Ocular cyst” value [1] was 1, the “Number of subjects with treatment-emergent AE: Psychiatric disorders” value [1] was 1 and the “Number of subjects with treatment-emergent AE: Retinal vein occlusion” value [1] was 1. For the same compound, the “Number of subjects with treatment-emergent AE: Seasonal allergy” value [1] was 2, the “Number of subjects with treatment-emergent AE: Vertigo” value [1] was 2 and the “Subjects with treatment-emergent AE: Cholelithiasis (%)” value [1] was “(0.4%)”. For the same compound, the “Subjects with treatment-emergent AE: Ear and labyrinth disorders (%)” value [1] was “(0.9%)”, the “Subjects with treatment-emergent AE: Endocrine disorders (%)” value [1] was “(0.4%)” and the “Subjects with treatment-emergent AE: Eye disorders (%)” value [1] was “(1.3%)”. For the same compound, the “Subjects with treatment-emergent AE: Eyelid skin dryness (%)” value [1] was “(0.4%)”, the “Subjects with treatment-emergent AE: Goiter (%)” value [1] was “(0.4%)” and the “Subjects with treatment-emergent AE: Hepatobiliary disorders (%)” value [1] was “(0.9%)”. For the same compound, the “Subjects with treatment-emergent AE: Hypertransaminasemia (%)” value [1] was “(0.4%)”, the “Subjects with treatment-emergent AE: Immune system disorders (%)” value [1] was “(0.9%)” and the “Subjects with treatment-emergent AE: Insomnia (%)” value [1] was “(0.4%)”. For the same compound, the “Subjects with treatment-emergent AE: Ocular cyst (%)” value [1] was “(0.4%)”, the “Subjects with treatment-emergent AE: Psychiatric disorders (%)” value [1] was “(0.4%)” and the “Subjects with treatment-emergent AE: Retinal vein occlusion (%)” value [1] was “(0.4%)”. For the same compound, the “Subjects with treatment-emergent AE: Seasonal allergy (%)” value [1] was “(0.9%)”, the “Subjects with treatment-emergent AE: Ventricular dysfunction (%)” value [1] was “(0.4%)” and the “Subjects with treatment-emergent AE: Vertigo (%)” value [1] was “(0.9%)”. The “Acrochordon: % of subjects” value (Combined, through Week 56) was “(0.8%)”, the “Acrochordon: number of subjects” value (Combined, through Week 56) was 2 and the “Actinic keratosis: % of subjects” value (Combined, through Week 56) was “(0.4%)”. For the same compound, the “Actinic keratosis: number of subjects” value (Combined, through Week 56) was 1, the “Alopecia: % of subjects” value (Combined, through Week 56) was “(0.4%)” and the “Alopecia: number of subjects” value (Combined, through Week 56) was 1. The “Asthenia: % of subjects” value (Combined, through Week 56) was “(0.4%)”, the “Asthenia: number of subjects” value (Combined, through Week 56) was 1 and the “Asthma: % of subjects” value (Combined, through Week 56) was “(0.4%)”. The “Asthma: number of subjects” value (Combined, through Week 56) was 1, the “Atrioventricular block first degree: % of subjects” value (Combined, through Week 56) was “(0.4%)” and the “Atrioventricular block first degree: number of subjects” value (Combined, through Week 56) was 1. The “Basal cell carcinoma: % of subjects” value (Combined, through Week 56) was “(0.4%)”, the “Basal cell carcinoma: number of subjects” value (Combined, through Week 56) was 1 and the “Blood and lymphatic system disorders: % of subjects” value (Combined, through Week 56) was “(2.0%)”. The “Blood and lymphatic system disorders: number of subjects” value (Combined, through Week 56) was 5, the “Bronchitis chronic: % of subjects” value (Combined, through Week 56) was “(0.4%)” and the “Bronchitis chronic: number of subjects” value (Combined, through Week 56) was 1. For the same compound, the “Bundle branch block right: % of subjects” value (Combined, through Week 56) was “(0.4%)”, the “Bundle branch block right: number of subjects” value (Combined, through Week 56) was 1 and the “Cardiac disorders: % of subjects” value (Combined, through Week 56) was “(1.6%)”. For the same compound, the “Cardiac disorders: number of subjects” value (Combined, through Week 56) was 4, the “Chills: % of subjects” value (Combined, through Week 56) was “(0.8%)” and the “Chills: number of subjects” value (Combined, through Week 56) was 2. For the same compound, the “Cholelithiasis: % of subjects” value (Combined, through Week 56) was “(0.4%)”, the “Cholelithiasis: number of subjects” value (Combined, through Week 56) was 1 and the “Chronic obstructive pulmonary disease: % of subjects” value (Combined, through Week 56) was “(0.4%)”. For the same compound, the “Chronic obstructive pulmonary disease: number of subjects” value (Combined, through Week 56) was 1.
